Laboratory results: patent publication US20050004167A1, “Branched chain amino acid-dependent aminotransferase inhibitors and their use in the treatment of neurodegenerative diseases” (WARNER-LAMBERT COMPANY LLC, priority 2001, published 2005)
Several values for one entry are separate records, joined by “and”; a condition that tells them apart may be missing. Equal values may be shown once.

Columns and labels:
[1] = biological target: T1, human Branched Chain Amino Acid Aminotransferase cytosolic form (hBCATc) (Homo sapiens, UniProt P54687); experiment: In vitro coupled enzyme assay (glutamate dehydrogenase, NADH formation), human BCATc; type: biochemical; settings: recombinant human BCATc, 37° C., 25 mM phosphate buffer pH 7.8; several values in a cell = repeat determinations; read-out: RhBCATc
T1 construct: made in house; host or cells: E. coli BL21(DE3)
T1 sequence (P54687 1-386): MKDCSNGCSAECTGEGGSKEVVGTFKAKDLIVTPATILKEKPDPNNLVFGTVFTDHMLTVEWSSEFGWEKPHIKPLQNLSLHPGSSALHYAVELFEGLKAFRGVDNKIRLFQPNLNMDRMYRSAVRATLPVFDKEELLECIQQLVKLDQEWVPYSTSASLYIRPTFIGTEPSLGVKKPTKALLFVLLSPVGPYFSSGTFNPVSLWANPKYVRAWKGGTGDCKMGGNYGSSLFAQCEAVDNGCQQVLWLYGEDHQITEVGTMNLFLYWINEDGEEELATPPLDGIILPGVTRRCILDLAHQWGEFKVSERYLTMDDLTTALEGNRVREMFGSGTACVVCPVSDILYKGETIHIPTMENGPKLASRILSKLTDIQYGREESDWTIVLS
Description: (§1) In vitro enzyme assay—human Branched Chain Amino Acid Aminotransferase cytosolic form (hBCATc) and mitochondrial form (hBCATm) as well as rat BCAT cytosolic form were assayed at 37° C. in 25 mM phosphate buffer pH 7.8. In addition, 2 mM DTT and 12.5 mM […] were added to the assay mixture. A coupling enzyme assay was used to monitor the production of glutamate. The formation of NADH from NAD+ at […] was followed on a 96-well plate Molecular Devices plate reader.
(§2) The following components were used in this coupled assay: 4 mM ADP, 1 mM NAD+, 750 μM L-Leucine, 500 μM α-ketoglutarate, 10 μM pyridoxal phosphate, 1 unit glutamate dehydrogenase, and 1.25 μg of the appropriate BCAT enzyme. Inhibitions by compounds were assayed by adding various concentrations to this coupled assay procedure as a DMSO stock up to a 5% v/v DMSO/buffer ratio.
(§3) Enzyme Preparation—humanBCATc and ratBCATc were expressed in BL21(DE3) cells. A growing culture of cells was induced with 1 mM IPTG at room temperature overnight. These cells were harvested by centrifugation at 10,000 g for 20 minutes. The supernatant was discarded, and the cells were stored at −80° C. until needed. The protein was purified by the following method. The cell paste was resuspended in extraction buffer (0.1 M phosphate, pH 8.0, with 0.01 M Tris-HCL and 5 mM TCEP and then lysed on a French Press at 1000 psi. The lysate was centrifuged at 10,000 g for 15 minutes, and the pellet was discarded. The supernatant was loaded onto a Hitrap Chelating column previously charged with 0.1 M NiSO4 and washed with 3 to 4 column volumes of extraction buffer. The column was then washed with 0.01 Tris, pH 7.5, 10% glycerol, 150 mM NaCl, 5 mM TCEP for two column volumes. The column was then further washed with two column volumes of 0.1 M phosphate, pH 6.0, 0.01 M Tris, 10% glycerol and 750 mM NaCl. Finally, the column was washed with two column volumes of the same buffer plus 50 mM imidazole. The BCAT enzyme was then eluted with the same buffer but with 350 mM imidazole. The eluant was then dialyzed overnight against 10 mM phosphate buffer pH 8.0, 10% glycerol, and 5 mM TCEP. The dialyzed protein was then loaded onto a Q-sepharose column and eluted using a salt gradient. Active fractions were collected and further purified on a Superose-12 column to yield pure BCAT protein.

[2] = biological target: T2, rat BCAT cytosolic form (Rattus norvegicus, UniProt P54690); experiment: In vitro coupled enzyme assay (glutamate dehydrogenase, NADH formation), rat BCATc; type: biochemical; settings: recombinant rat BCATc, 37° C., 25 mM phosphate buffer pH 7.8; several values in a cell = repeat determinations; read-out: RrBCATc
T2 construct: made in house; host or cells: E. coli BL21(DE3)
T2 sequence (P54690 1-411): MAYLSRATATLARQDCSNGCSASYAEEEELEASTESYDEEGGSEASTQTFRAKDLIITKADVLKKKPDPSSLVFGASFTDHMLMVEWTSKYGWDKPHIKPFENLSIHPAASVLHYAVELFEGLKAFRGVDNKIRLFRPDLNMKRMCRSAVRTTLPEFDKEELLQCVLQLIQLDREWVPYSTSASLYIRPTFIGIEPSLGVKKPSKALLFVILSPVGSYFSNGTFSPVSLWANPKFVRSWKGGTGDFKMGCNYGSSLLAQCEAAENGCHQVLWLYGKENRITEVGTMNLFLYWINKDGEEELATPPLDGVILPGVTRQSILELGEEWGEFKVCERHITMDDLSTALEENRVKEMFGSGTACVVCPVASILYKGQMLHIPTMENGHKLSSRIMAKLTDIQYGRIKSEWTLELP
Description: as §1, §2, §3

With `Nc1ccc2oc(C(=O)NNS(=O)(=O)c3ccccc3)cc2c1` [Example 91, 2-Benzofurancarboxylic acid, 5-amino-, 2-(phenylsulfonyl)hydrazide] the IC50 [1] was 19.6 µM and the IC50 [2] was 0.11 µM.
With `O=C(NNS(=O)(=O)c1ccccc1)c1ccc2c(c1)CCO2` [Example 9, 2,3-Dihydro-benzofuran-5-carboxylic acid 2-(phenylsulfonyl)hydrazide] the IC50 [1] was 17.9 µM and 29 µM and the IC50 [2] was 2.18 µM and 3.3 µM.
With `Cc1c(C(=O)NNS(=O)(=O)c2ccccc2)oc2ccccc12` [Example 88, 2-Benzofurancarboxylic acid, 3-methyl-, 2-(phenylsulfonyl)hydrazide] the IC50 [1] was 40 µM and the IC50 [2] was 4 µM.
With `O=C(NNS(=O)(=O)c1ccccc1OC(F)(F)F)c1ccc2oc3ccccc3c2c1` [Example 98, 2-Dibenzofurancarboxylic acid, 2-[(2-trifluoromethoxyphenyl)sulfonyl]hydrazide] the IC50 [1] was 2.8 µM and the IC50 [2] was 0.65 µM.
For `Cc1ccccc1S(=O)(=O)NNC(=O)c1cc2cc(Cl)ccc2o1` [Example 46, 2-Benzofurancarboxylic acid, 5-chloro-2-[(2-methylphenyl)sulfonyl]hydrazide], the IC50 [1] was 1.08 µM and 0.7 µM and the melting point was 190.5 to 192 °C.
Compound `COc1ccc2oc(C(=O)NNS(=O)(=O)c3ccccc3)c(OC(C)C)c2c1` [Example 57, 2-Benzofurancarboxylic acid, 5-methoxy-3-(1-methylethoxy), 2-(phenylsulfonyl)-hydrazide] has an IC50 [1] of 1.14 µM and an IC50 [2] of 0.14 µM.
With `O=C(NNS(=O)(=O)c1ccccc1Br)c1cc2cc(Cl)cc(Cl)c2o1` [Example 73, 2-Benzofurancarboxylic acid, 5,7-dichloro 2-[(2-bromophenyl)sulfonyl]-hydrazide] the IC50 [1] was 14.4 µM and the IC50 [2] was 1.89 µM.
Compound `O=C(NNS(=O)(=O)c1ccccc1F)c1ccc2oc3ccccc3c2c1` [Example 92, 2-Dibenzofurancarboxylic acid, 2-[(2-fluorophenyl)sulfonyl]hydrazide] has an IC50 [1] of 12.1 µM and an IC50 [2] of 1.1 µM.
With `Cc1ccc(S(=O)(=O)NNC(=O)c2ccc3oc4ccccc4c3c2)cc1[N+](=O)[O-]` [Example 96, 2-Dibenzofurancarboxylic acid, 2-[(4-methyl-3-nitrophenyl)sulfonyl]hydrazide] the IC50 [1] was 51.6 µM and the IC50 [2] was 36.3 µM.
For `O=C(NNS(=O)(=O)c1ccc(F)c(Cl)c1)c1ccc2ccccc2c1` [Example 115, 2-Naphthalenecarboxylic acid, 2-[(3-chloro-4-fluorophenyl)sulfonyl]hydrazide], the IC50 [1] was 59.9 µM and the IC50 [2] was 5.2 µM.
`O=C(NNS(=O)(=O)c1ccc(F)c(Cl)c1)c1ccc2ncccc2c1` [Example 140, 6-Quinolinecarboxylic acid, 2-[(3-chloro-4-fluorophenyl)sulfonyl]hydrazide] gave an IC50 [1] of over 100 µM and a melting point of 241.9 to 242.6 °C.
`O=C(NNS(=O)(=O)c1ccccc1OC(F)(F)F)c1ccc2ncccc2c1` [Example 136, 6-Quinolinecarboxylic acid, 2-[(2-trifluoromethoxyphenyl)sulfonyl]hydrazide] gave an IC50 [1] of 40 µM and a melting point of 243.5 to 243.9 °C.
Compound `O=C(NNS(=O)(=O)c1ccc(F)c(Cl)c1)c1cnc2ccccc2c1` [Example 141, 3-Quinolinecarboxylic acid, 2-[(3-chloro-4-fluorophenyl)sulfonyl]hydrazide] has an IC50 [1] of over 100 µM and a melting point of 245 to 245.7 °C.
Compound `CS(=O)(=O)Nc1ccc2oc(C(=O)NNS(=O)(=O)c3ccccc3)cc2c1` [Example 158, 2-Benzofurancarboxylic acid, 5-(methylsulfonylamino)-, 2-(phenylsulfonyl)hydrazide] has an IC50 [1] of 26 µM and a melting point of 255.4 to 256.1 °C.
In the case of `O=C(NNS(=O)(=O)c1c(Cl)cccc1Cl)c1ccc2oc3ccccc3c2c1` [Example 28, 2-Dibenzofurancarboxylic acid 2-[(2,6-dichlorophenyl)sulfonyl]hydrazide], the IC50 [1] is reported as over 100 µM and the melting point is reported as 202 to 203 °C.
With `COc1cccc(S(=O)(=O)NNC(=O)c2cnc3ccccc3c2)c1` [Example 143, 3-Quinolinecarboxylic acid, 2-[(3-methoxyphenyl)sulfonyl]hydrazide] the IC50 [1] was 80 µM and the melting point was 226.9 to 227.2 °C.
Compound `O=C(NNS(=O)(=O)c1ccccc1C(F)(F)F)c1ccc2ncccc2c1` [Example 134, 6-Quinolinecarboxylic acid, 2-[(2-trifluoromethylphenyl)sulfonyl]hydrazide] has an IC50 [1] of 17 µM and a melting point of 236.7 to 237.4 °C.
Compound `O=C(NNS(=O)(=O)c1cccc(Br)c1)c1ccc2ncccc2c1` [Example 144, 6-Quinolinecarboxylic acid, 2-[(3-bromophenyl)sulfonyl]hydrazide] has an IC50 [1] of 29 µM and a melting point of 216 to 216.8 °C.
For `O=C(NNS(=O)(=O)c1cccc(Br)c1)c1cnc2ccccc2c1` [Example 145, 3-Quinolinecarboxylic acid, 2-[(3-bromophenyl)sulfonyl]hydrazide], the IC50 [1] was 80 µM and the melting point was 231.5 to 232.3 °C.
With `O=C(NNS(=O)(=O)c1ccccc1)c1ccnc2ccccc12` [Example 155, Quinoline-4-carboxylic acid 2-(phenylsulfonyl)hydrazide] the IC50 [1] was over 100 µM and the melting point was 153 to 156 °C.
Work on `O=C(NNS(=O)(=O)c1ccccc1Br)c1cc2cc(Cl)ccc2o1` [Example 44, 2-Benzofurancarboxylic acid, 5-chloro-2-[(2-bromophenyl)sulfonyl]hydrazide] yielded an IC50 [1] of 3.44 µM and a melting point of 206.4 to 207.3 °C.
Compound `CN(C)c1ccccc1S(=O)(=O)NNC(=O)c1ccc2oc3ccccc3c2c1.Cl` has a melting point of 103.2 to 103.9 °C.
In the case of `O=C(NNS(=O)(=O)c1ccccc1)c1nccc2ccccc12` (hydrate or solvate) [Example 152, Isoquinoline-1-carboxylic acid 2-(phenylsulfonyl)hydrazide], the melting point is reported as 198 to 200 °C.
`COc1cccc(S(=O)(=O)NNC(=O)c2ccc3ncccc3c2)c1` [Example 142, 6-Quinolinecarboxylic acid, 2-[(3-methoxyphenyl)sulfonyl]hydrazide] gave an IC50 [1] of 46 µM and a melting point of 201.9 to 202.7 °C.
Work on `Cc1ccc2oc(C(=O)NNS(=O)(=O)c3ccccc3OC(F)(F)F)cc2c1` (hydrate or solvate) [Example 85, 2-Benzofurancarboxylic acid, 5-methyl-, 2-[[2-(trifluoromethoxy)phenyl]-sulfonyl]hydrazide] yielded a melting point of 226.7 to 227 °C.
In the case of `COc1cccc2cc(C(=O)NNS(=O)(=O)c3cccc(C)c3)oc12` (hydrate or solvate) [Example 55, 2-Benzofurancarboxylic acid, 7-methoxy-, 2-[(3-methylphenyl)sulfonyl]hydrazide], the melting point is reported as 170.8 to 171.8 °C.
Compound `O=C(NNS(=O)(=O)c1ccccc1)c1cc2cc(NS(=O)(=O)c3ccccc3)ccc2o1` [Example 157, 2-Benzofurancarboxylic acid, 5-(phenylsulfonylamino)-, 2-(phenylsulfonyl)hydrazide] has an IC50 [1] of 8.7 µM and a melting point of 261.5 to 261.8 °C.
